For data set [1], the system named is Human immunodeficiency virus 1. In words: Antiviral activity against HIV-1 IIIB infected in human MT2 cells assessed as inhibition of viral growth. The data set is classed as functional, organism-based. The note with it: Human immunodeficiency virus 1, IIIB.
Data set [2] relates to MT2. In words: Cytotoxicity against human MT2 cells assessed as reduction in cell growth. The data set is classed as functional, cell-based.
Data set [3] in a line: Cytotoxicity against human PBMC cells. The class given is toxicity, cell-based.
Data set [4] deals with Human immunodeficiency virus 1. Description: Antiviral activity against HIV1 harboring Y181C mutant infected in human MT4 cells. The note with it: Human immunodeficiency virus 1, MT4. The class given is functional, organism-based.
Data set [5] concerns Human immunodeficiency virus 1. Description: Antiviral activity against HIV-1 harboring L100I mutant infected in human MT4 cells assessed as virus-induced cytopathicity treated for 5 days by MTT assay. The class given is functional, organism-based. The note with it: Human immunodeficiency virus 1, MT4, 120 h. In general terms: Protection from cytopathic effect is a common read-out in antiviral testing.

Data set [6] relates to Human immunodeficiency virus 1. Description: Antiviral activity against HIV1 harboring Y188H mutant infected in MT4 cells assessed as virus-induced cytopathicity treated for 5 days by MTT assay. The data set is classed as functional, organism-based. The note with it: Human immunodeficiency virus 1, MT4, 120 h.
The subject of data set [7] is Human immunodeficiency virus 1. In words: Antiviral activity against wild type HIV-1 NL4-3 infected in human MT4 cells assessed as reduction in viral replication. The class given is functional, organism-based. The note with it: Human immunodeficiency virus 1, NL4-3, MT4; read-out: EC50.
Data set [8] has as its system Human immunodeficiency virus 1. Description: Antiviral activity against HIV-1 NL4-3 harboring infected Y181C mutant infected in human MT4 cells assessed as reduction in viral replication. The class given is functional, organism-based. The note with it: Human immunodeficiency virus 1, NL4-3, MT4.
Data set [9] deals with Human immunodeficiency virus 1. In words: Antiviral activity against HIV-1 NL4-3 harboring infected K103N mutant infected in human MT4 cells assessed as reduction in viral replication. The data set is classed as functional, organism-based. The note with it: Human immunodeficiency virus 1, NL4-3, MT4.
For data set [10], the system named is Human immunodeficiency virus 1. In words: Antiviral activity against NNRTI-resistant HIV-1 harboring E138K mutant infected in human MT4 cells assessed as protection against virus-induced cytopathic effect by MTT assay. The class given is functional, organism-based. The note with it: Human immunodeficiency virus 1, MT4.
Data set [11] in a line: Selectivity index, ratio of CC50 for human MT4 cells to EC50 for antiviral activity against HIV1 infected in human MT4 cells. The class given is toxicity, cell-based. The note with it: read-out: Ratio CC50/EC50.
Data set [12] concerns MT4. Description: Cytotoxicity against human MT4 cells assessed as reduction in […] incubated for 4 days by MTT assay. The note with it: MT4, 96 h, time 4 day. The data set is classed as functional.
Data set [13] deals with Human immunodeficiency virus 1. Description: Antiviral activity against HIV1 IIIB infected in human MT4 cells assessed as reduction in virus-induced cytopathic effect incubated for 4 days by MTT assay. The note with it: Human immunodeficiency virus 1, IIIB, MT4, 96 h. The data set is classed as functional, organism-based.
Data set [14] relates to Human immunodeficiency virus 1. In words: Antiviral activity against HIV-1 IIIB infected in human C8166 cells assessed as reduction in virus-induced cytopathic effect incubated for 3 days by MTT assay. The note with it: Human immunodeficiency virus 1, IIIB, C8166, 72 h. The data set is classed as functional, organism-based.
Data set [15] concerns Human immunodeficiency virus 1. Description: Antiviral wild type activity against HIV-1 IIIB infected in human C8166 cells assessed as reduction in virus-induced cytopathic effect incubated for 3 days by MTT assay. The data set is classed as functional, organism-based. The note with it: Human immunodeficiency virus 1, IIIB, C8166, 72 h.
In data set [16] the test system is Human immunodeficiency virus 1. Description: Antiviral wild type activity against HIV-1 Ba-L infected in human TZM-bl cells assessed as reduction in virus-induced cytopathic effect incubated for 3 days by MTT assay. The data set is classed as functional, organism-based. The note with it: Human immunodeficiency virus 1, Ba-L, 72 h.
Data set [17] concerns Human immunodeficiency virus 1. Description: Antiviral wild type activity against HIV-1 TC-1 infected in human PBMC cells assessed as reduction in virus-induced cytopathic effect incubated for 3 days by MTT assay. The data set is classed as functional, organism-based. The note with it: Human immunodeficiency virus 1, TC-1, PBMC, 72 h.
The subject of data set [18] is Human immunodeficiency virus 1. In words: Antiviral wild type activity against HIV-1 WAN infected in human PBMC cells assessed as reduction in virus-induced cytopathic effect incubated for 3 days by MTT assay. The data set is classed as functional, organism-based. The note with it: Human immunodeficiency virus 1, WAN, 72 h.
Data set [19] relates to Human immunodeficiency virus 1. In words: Antiviral […] activity against HIV-1 A17 harboring reverse transcriptase K103N/Y181C double mutant infected in human C8166 cells assessed as reduction in virus-induced cytopathic effect incubated for 3 days by MTT assay. The data set is classed as functional, organism-based. The note with it: Human immunodeficiency virus 1, A17, C8166, 72 h.

In data set [20] the test system is Hepatitis B virus. Description: Antiviral activity against Hepatitis B virus infected in human HepG2.2.15 cells assessed as inhibition of HBV DNA production by qRT-PCR analysis. The class given is functional, organism-based. For orientation: In qPCR the cycle at which signal appears reflects the starting amount.
In data set [21] the test system is Staphylococcus aureus. Description: Antibacterial activity against Staphylococcus aureus. The class given is functional.
Data set [22] deals with Bacillus subtilis. Description: Antibacterial activity against Bacillus subtilis. The class given is functional.
Data set [23] is described as follows: Toxicity in African green monkey Vero cells assessed as reduction in cell viability incubated for 72 hrs by MTT assay. The note with it: chlorocebus sabaeus, read-out: TD50. The class given is cell-based. A general note: Tetrazolium assays rely on reduction of a dye to a coloured formazan, in cell work by metabolically active cells.
The nature of data set [24]: Toxicity in human C8166 cells assessed as reduction in cell viability incubated for 72 hrs by MTT assay. The class given is cell-based. The note with it: read-out: TD50.
In data set [25] the test system is Human immunodeficiency virus 1. In words: Antiviral activity against HIV-1 IIIB infected in human C8166 cells assessed as reduction in viral replication measured for 3 days. The class given is functional. The note with it: Human immunodeficiency virus 1, IIIB, C8166, 72 h; time 3 day; read-out: ED50 (the source's name).
Data set [26] concerns Human alphaherpesvirus 1. Description: Antiviral activity against HSV-1 infected in Vero cells by plaque reduction assay. The class given is functional. The note with it: Human alphaherpesvirus 1, Vero; read-out: ED50 (the source's name).
Data set [27] deals with dengue virus type 1. Description: Antiviral activity Dengue virus 1. The data set is classed as functional, organism-based.
Data set [28] relates to dengue virus type 2. In words: Antiviral activity Dengue virus 2. The data set is classed as functional, organism-based.
Data set [29] relates to dengue virus type 3. In words: Antiviral activity Dengue virus 3. The class given is functional, organism-based.
The subject of data set [30] is dengue virus type 4. Description: Antiviral activity Dengue virus 4. The data set is classed as functional, organism-based.
Data set [31] is described as follows: Cytotoxicity against African green monkey Vero cells. The class given is toxicity, cell-based. The note with it: chlorocebus sabaeus.
The test system of data set [32] is MT4. In words: Cytotoxicity against human MT4 cells. The data set is classed as functional.
For data set [33], the system named is Human immunodeficiency virus 1. Description: Antiviral activity against HIV-1 infected in human MT4 cells. The class given is functional, organism-based. The note with it: Human immunodeficiency virus 1, MT4.

SMILES strings stand for the structures. pEC50, pIC50: −log10 of the molar value. Values after ≈ are worked out from the molar mass of the structure shown.

A word on the pEC50: it is −log10 of the EC50, conventionally taken in molar units. As a reminder, the pIC50 is the negative decadic logarithm of the IC50, by convention in mol/L. As to `Nc1cc(Cl)nc(SCc2ccccc2)n1`, the pEC50 in data set [1] is 6.40. The pIC50 in data set [2] and in [3] was below 4.80 each time.

On to `C[C@H](Sc1nc(N)cc(Cl)n1)c1cc2ccoc2cn1`, for which the figures for the pEC50 in data set [4], in data set [5] and in data set [6] were 6.75, 7.41 and 7.11, respectively.

As to `Cc1c(C(C)c2c(F)cccc2F)nc(N(C)Cc2ccc([N+](=O)[O-])cc2)[nH]c1=O` (stereo not given), the negative logarithm of the EC50 (pEC50) in data set [7] is 8.00; in [8] it was 6.09; in data set [9] it was 6.29; in data set [10] it was 6.29.

For the molecule `COc1ccc(CN(C)c2nc(C(C)c3c(F)cccc3F)c(C)c(=O)[nH]2)cc1` (stereo not given), the pEC50 was 8.52 in data set [7], 7.10 in [8], 6.99 in data set [9] and 6.99 in [10].

With `CCC(C)Sc1nc(O)cc(Cc2cccc3ccccc23)n1` (stereo not given), in data set [11], the selectivity ratio was above 909. Further, the CC50 in data set [12] is above 300000 nM. Further, the negative-log EC50 (pEC50) in data set [13] was 6.48.

In the case of `CCc1c(CC2CCCCC2)nc(SCc2cc(-c3ccc(O)cc3)[nH]n2)[nH]c1=O`, the pEC50 in data set [14] is 8.52; in data set [15] it was 8.40; in data set [16] it was 7.32; in [17], 7.85; in data set [18], 7.25; in [19] it was 5.56.

Turning to `Nc1cc(Cl)nc(Sc2ccccc2)n1`, in data set [3], the CC50 worked out at 207000 nM.

With `O=c1[nH]c(SC2O[C@H](CO)[C@H](O)[C@@H](O)[C@@H]2O)nc(Cc2ccccc2)c1Cc1ccccc1` (stereo not given in full), in data set [20], the pEC50 is 6.70.

By MIC is commonly meant the lowest concentration found to suppress growth. On to `Cc1ccc(-c2nc(S/C(=N/Nc3ccc(O)cc3)C(=O)c3ccc(Br)cc3)[nH]c(=O)c2C#N)cc1`, for which the MIC in data set [21] was found to be 0.19 µg/mL (≈ 0.339 µM); in [22], 1.17 µg/mL (≈ 2.09 µM).

On to `CCCCOc1nc(Cc2ccc(OC)cc2)cc(=O)[nH]1`, for which the CC50 at 72 h in data set [23] and in data set [24] was 100 µg/mL (≈ 347 µM) in each case. The EC50 in data set [25] came out at 25 µg/mL (≈ 86.7 µM); in data set [26], 50 µg/mL (≈ 173 µM).

Turning to `CCc1c(CC2CCCCC2)nc(SCc2n[nH]c(-c3ccc(F)c(F)c3)c2Cl)[nH]c1=O`, the pEC50 in [27] is 5.83; in [28], 5.03; in data set [29] it was 5.15; in data set [30], 5.05. The CC50 in data set [31] was above 200000 nM.

With `N#Cc1c(-c2ccc(Br)cc2)nc(S/C(=N/Nc2ccc(O)cc2)C(=O)c2ccc(Br)cc2)[nH]c1=O`, the figures for the MIC in data set [21] and in data set [22] were 1.17 µg/mL (≈ 1.87 µM) and 2.34 µg/mL (≈ 3.74 µM), respectively.

As for `COc1ccc(Cc2cc(N)nc(OC)n2)cc1`, the CC50 at 72 h in data set [23] and in data set [24] was 50 µg/mL (≈ 204 µM) in each case. Moreover, the EC50 in [25] turned out to be 12.5 µg/mL (≈ 51 µM); in data set [26], 25 µg/mL (≈ 102 µM).

Consider `CSCCSc1nc(C2(c3c(F)cccc3F)CC2)c(C)c(=O)[nH]1`, for which the selectivity ratio in [11] is 2330. This molecule gave a CC50 in data set [32] of 14000 nM. In [33], this molecule gave a pEC50 of 8.30.

These data come from ChEMBL document CHEMBL6115028, “An Amazing 30-Year Journey around the DABO Family: A Medicinal Chemistry Lesson on a Versatile Class of Non-nucleoside HIV-1 Reverse Transcriptase Inhibitors” (J Med Chem, 2025).
